Laboratory results taken from paper PMC12074479, “Design, Synthesis, and Biological Evaluation of New Analogs of Aurein 1.2 Containing Non-Proteinogenic Amino Acids” (Molecules, 2025).
In brackets after ≈: the same amount, converted by molar mass. Read-outs that look alike come from different tables or passages of the source. Where a SMILES comes first, the peptide text is derived from it. [ ]: non-standard residue; d: D form. Orn = NCCC[C@H](N)C(=O)O; Dab = NCC[C@H](N)C(=O)O; Dap = NC[C@H](N)C(=O)O

Experiments:
in vitro = conditions: mouse, Mean CC50 ± SD
Procedure: (§1) An in vitro BALB 3T3 Neutral Red Uptake assay was used to determine the cytotoxicity/phototoxicity of the peptides. Cytotoxicity of peptide analogs was calculated as a percentage relative to the negative control. […] Photo irritation factor (PIF) was used to assess the phototoxic potential of the peptide analogs. The PIF factor represents the ratio between the CC50 values of dark (non-irradiated or—Irr) and irradiated (+Irr) microplates, PIF = (CC50 − Irr)/(CC50 + Irr).
(§2) Mouse embryonic fibroblasts (BALB 3T3) were used to perform the cytotoxicity and phototoxicity tests. The tests were performed by OECD Guidelines for the Testing of Chemicals, Section 4, Test No. 432. Cells were plated at 1 × 10^4 cells/well in 96-well plates. Cells were incubated in a thermostat for 24 h. Then, the test peptides were added at various working concentrations (4–1000 μM). In the phototoxicity test, 96-well plates were irradiated with a dose of 2.4 J/cm^2 using a solar light simulator Helios-iO (SERIC Ltd., Tokyo, Japan). Cell viability was measured using the BALB 3T3 neutral red uptake test. Cytotoxicity is presented as % relative to the negative control.

BALB 3T3 cells = assay: in vitro; conditions: for Toxicity compared to the parent peptide aurein 1.2: BALB 3T3 cells, fold lower toxicity
Procedure: as §1, §2

MCF-12F = assay: cells; conditions: 72 h
Procedure: (§3) The peptides were studied for antiproliferative activity with an MTT-dye reduction assay. Cell cultures were incubated with the test peptides in twofold increasing concentrations (from 2 to 500 μM) for 72 h.
(§4) The antiproliferative activity of the peptides was determined in normal epithelial cells (MCF-12F) and tumor cells (MCF-7 and MDA-MB-231) by MTT-assay. Cells were plated 1 × 10^3 cells/100 µL/well of 96-well plates and incubated in a thermostat under standard conditions for 24 h. Cells were then incubated with the tested peptide analogs for 72 h in different concentrations (from 2 to 500 µM). The optical density of the formazan was measured at λ = 540 nm using a microplate reader. Antiproliferative activity was expressed as % from negative control. […] The statistical analysis of the results was performed using one-way ANOVA followed by Bonferroni’s post hoc test by GraphPad Prism 8 software (San Diego, CA, USA).

MCF-7 = assay: cells
Procedure: as §3, §4

MDA-MB-231 = assay: cells
Procedure: as §3, §4

[1] = system: Bacillus subtilis NBIMCC 3562
Procedure: (§5) The antimicrobial activity of the 7 new analogs of aurein 1.2 was evaluated by determining the MIC and MBC against Gram-positive strain Bacillus subtilis 3562 and Gram-negative strain Escherichia coli K12 407. The MIC of the newly synthesized analogs was assessed by applying a broth microdilution method, whereas their MBC was determined by using a spread plate method. All experiments were performed in triplicate.
(§6) Bacillus subtilis NBIMCC 3562 and Escherichia coli NBIMCC K12 407 were used as test microorganisms and were purchased from the National Bank for Industrial Microorganisms and Cell Cultures (NBIMCC, Sofia, Bulgaria). Exponential cultures were obtained in Nutrient broth (NB, HiMedia, Mumbai, India) for B. subtilis NBIMCC 3562 and Luria-Bertani (LB, HiMedia, Mumbai, India) for E. coli NBIMCC K12 407, after cultivation in an incubator shaker ES-20/60 (Biosan, Latvia) at 30/37 °C for 24 h. Then, the turbidity of the microbial cultures was adjusted to the 0.5 McFarland standard using a Grant Bio DEN-1B Densitometer (Grant Instruments, Royston, UK).
(§7) The antimicrobial activity of the obtained aurein 1.2 analogs was evaluated using the broth microdilution method, recommended by the Clinical and Laboratory Standards Institute (CLSI), to determine the minimum inhibitory concentration (MIC) of the peptides against B. subtilis NBIMCC 3562 and E. coli NBIMCC K12 407. All peptides were previously dissolved in 10% EtOH/H2O, and their 10 mg/mL stock solutions were stored at −20 °C. Bacterial cultures, previously adjusted to 0.5 McFarland standard, were incubated in the presence of different peptide concentrations (0–320 µg/mL) in 96-well polystyrene microplates (Deltalab S.L., Barcelona, Spain) at 30/37 °C for 24 h. The lowest concentration of each peptide, which inhibited bacterial growth, was considered as MIC. In addition, a drop of 20 µL of the 24 h inhibitory concentration test samples was spotted on the corresponding solid media to determine the minimum bactericidal concentration (MBC). […] All experiments were performed in triplicate.

[2] = system: Escherichia coli NBIMCC K12 407
Procedure: as §5, §6, §7

[3] = SI = IC50 (normal cells)/IC50 (tumor cells), normal cells MCF-12F
[4] = +Irr, BALB 3T3 cells, irradiated 2.4 J/cm^2, NRU
[5] = −Irr, BALB 3T3 cells, non-irradiated (dark), NRU
[6] = broth microdilution, 0–320 µg/mL, 24 h, NI = no inhibition monitored

Row | SMILES | CC50 (in vitro; +Irr) | PIF (Photo Irritation Factor) (BALB 3T3 cells) | IC50 (MCF-12F) | IC50 (MCF-7; 72 h) | IC50 (MDA-MB-231; 72 h) | MIC, Bacillus subtilis NBIMCC 3562 ([1]; NBIMCC 3562, 24 h) | MIC, Escherichia coli NBIMCC K12 407 ([2]; K12, 24 h) | CC50 (in vitro; [4]) | CC50 (in vitro; [5]) | also measured
1 | CN(C)CCCN1c2ccccc2Sc2ccc(Cl)cc21 [Chlorpromazine, reference compound] | 2.04 ± 0.07 µM | – | – | – | – | – | – | – | – | PIF (Photo Irritation Factor) (BALB 3T3 cells; mouse): 6.06
2 | COc1cccc2c1C(=O)c1c(O)c3c(c(O)c1C2=O)C[C@@](O)(C(=O)CO)C[C@@H]3O[C@H]1C[C@H](N)[C@H](O)[C@H](C)O1 [Doxorubicin, reference compound] | – | – | – | – | – | – | – | – | – | IC50 (MCF-12F; Homo sapiens, read-out: Mean IC50 ± SD, MCF-12F): 0.601 ± 0.059 µM; IC50 (MCF-7; Homo sapiens, MCF7, 72 h, read-out: Mean IC50 ± SD, MCF-7): 0.68 ± 0.031 µM; SI, MCF-7 (MCF-7; [3]): 0.88; IC50 (MDA-MB-231; Homo sapiens, MDA-MB-231, 72 h, read-out: Mean IC50 ± SD, MDA-MB-231): 2.53 ± 0.11 µM; SI, MDA-MB-231 (MDA-MB-231; [3]): 0.237
3 | CC[C@H](C)[C@H](NC(=O)[C@H](CCN)NC(=O)[C@H](CCN)NC(=O)[C@@H](NC(=O)[C@@H](NC(=O)[C@H](CC(=O)O)NC(=O)[C@H](Cc1ccccc1)NC(=O)[C@H](CC(C)C)NC(=O)CN)[C@@H](C)CC)[C@@H](C)CC)C(=O)N[C@@H](C)C(=O)N[C@@H](CCC(=O)O)C(=O)N[C@@H](CO)C(=O)N[C@@H](Cc1ccccc1)C(N)=O [EH [Dab]^7,8, Gly-Leu-Phe-Asp-Ile-Ile-Dab^7-Dab^8-Ile-Ala-Glu-Ser-Phe-NH2] (H-GLFDII[Dab][Dab]IAESF-NH2) | 181.1 ± 1.81 µM | 1.11 | 168 ± 2.54 µM | 92.2 ± 1.8 µM | 164 ± 2.51 µM | 160 µg/mL (≈ 112 µM) | 160 µg/mL (≈ 112 µM) | – | – | Toxicity compared to the parent peptide aurein 1.2 (BALB 3T3 cells): two to four times lower toxicity
4 | CC[C@H](C)[C@H](NC(=O)[C@H](CCCCN)NC(=O)[C@H](CCN)NC(=O)[C@@H](NC(=O)[C@@H](NC(=O)[C@H](CC(=O)O)NC(=O)[C@H](Cc1ccccc1)NC(=O)[C@H](CC(C)C)NC(=O)CN)[C@@H](C)CC)[C@@H](C)CC)C(=O)N[C@@H](C)C(=O)N[C@@H](CCC(=O)O)C(=O)N[C@@H](CO)C(=O)N[C@@H](Cc1ccccc1)C(N)=O [EH [Dab]^7, Gly-Leu-Phe-Asp-Ile-Ile-Dab^7-Lys-Ile-Ala-Glu-Ser-Phe-NH2] (H-GLFDII[Dab]KIAESF-NH2) | 113 ± 5.57 µM | 1.40 | 92.1 ± 2.12 µM | 74.4 ± 3.29 µM | 125 ± 4.97 µM | 80 µg/mL (≈ 55.1 µM) | 80 µg/mL (≈ 55.1 µM) | – | – | MBC, Bacillus subtilis NBIMCC 3562 ([1]; NBIMCC 3562, 24 h): 320 µg/mL (≈ 220 µM)
5 | CC[C@H](C)[C@H](NC(=O)[C@H](CCN)NC(=O)[C@H](CCCCN)NC(=O)[C@@H](NC(=O)[C@@H](NC(=O)[C@H](CC(=O)O)NC(=O)[C@H](Cc1ccccc1)NC(=O)[C@H](CC(C)C)NC(=O)CN)[C@@H](C)CC)[C@@H](C)CC)C(=O)N[C@@H](C)C(=O)N[C@@H](CCC(=O)O)C(=O)N[C@@H](CO)C(=O)N[C@@H](Cc1ccccc1)C(N)=O [EH [Dab]^8, Gly-Leu-Phe-Asp-Ile-Ile-Lys-Dab^8-Ile-Ala-Glu-Ser-Phe-NH2] (H-GLFDIIK[Dab]IAESF-NH2) | 81.4 ± 2.34 µM | 1.13 | 68.3 ± 3.51 µM | 67.2 ± 2.57 µM | 79.7 ± 1.78 µM | 80 µg/mL (≈ 55.1 µM) | 80 µg/mL (≈ 55.1 µM) | – | – | MBC, Bacillus subtilis NBIMCC 3562 ([1]; NBIMCC 3562, 24 h): 320 µg/mL (≈ 220 µM)
6 | CC[C@H](C)[C@H](NC(=O)[C@H](CN)NC(=O)[C@H](CN)NC(=O)[C@@H](NC(=O)[C@@H](NC(=O)[C@H](CC(=O)O)NC(=O)[C@H](Cc1ccccc1)NC(=O)[C@H](CC(C)C)NC(=O)CN)[C@@H](C)CC)[C@@H](C)CC)C(=O)N[C@@H](C)C(=O)N[C@@H](CCC(=O)O)C(=O)N[C@@H](CO)C(=O)N[C@@H](Cc1ccccc1)C(N)=O [EH [Dap]^7,8, Gly-Leu-Phe-Asp-Ile-Ile-Dap^7-Dap^8-Ile-Ala-Glu-Ser-Phe-NH2] (H-GLFDII[Dap][Dap]IAESF-NH2) | 357.5 ± 3.03 µM | 1.01 | 308 ± 21.7 µM | 289 ± 19.8 µM | 372.2 ± 3.17 µM | 320 µg/mL (≈ 229 µM) | – | – | – | Toxicity compared to the parent peptide aurein 1.2 (BALB 3T3 cells): two to four times lower toxicity
7 | CC[C@H](C)[C@H](NC(=O)[C@H](CCCN)NC(=O)[C@H](CCCN)NC(=O)[C@@H](NC(=O)[C@@H](NC(=O)[C@H](CC(=O)O)NC(=O)[C@H](Cc1ccccc1)NC(=O)[C@H](CC(C)C)NC(=O)CN)[C@@H](C)CC)[C@@H](C)CC)C(=O)N[C@@H](C)C(=O)N[C@@H](CCC(=O)O)C(=O)N[C@@H](CO)C(=O)N[C@@H](Cc1ccccc1)C(N)=O [EH [Orn]^7,8, Gly-Leu-Phe-Asp-Ile-Ile-Orn^7-Orn^8-Ile-Ala-Glu-Ser-Phe-NH2] (H-GLFDII[Orn][Orn]IAESF-NH2) | – | – | – | – | – | – | – | 101 ± 3.7 µM | 157 ± 6.38 µM | PIF (Photo Irritation Factor) (BALB 3T3 cells; PIF = (CC50 −Irr)/(CC50 +Irr), PIF < 2 not phototoxic, 2 < PIF < 5 possible phototoxicity, PIF > 5 phototoxic): 1.55; IC50 (MCF-12F; read-out: Mean IC50 ± SD, MCF-12F, MTT, normal cell line): 112 ± 7.14 µM; IC50 (MCF-7; read-out: Mean IC50 ± SD, MCF-7, MTT, 72 h): 88.9 ± 3.14 µM; IC50 (MDA-MB-231; read-out: Mean IC50 ± SD, MDA-MB-231, MTT, 72 h): 123 ± 6.47 µM; MBC, Bacillus subtilis NBIMCC 3562 ([1]; 0–320 µg/mL, NI = no inhibition monitored): 320 µg/mL (≈ 220 µM); MIC, Bacillus subtilis NBIMCC 3562 [1, 6]: 80 µg/mL (≈ 55.1 µM); MIC, Escherichia coli NBIMCC K12 407 [2, 6]: 80 µg/mL (≈ 55.1 µM)
8 | CC[C@H](C)[C@H](NC(=O)[C@H](CCCCN)NC(=O)[C@H](CCCN)NC(=O)[C@@H](NC(=O)[C@@H](NC(=O)[C@H](CC(=O)O)NC(=O)[C@H](Cc1ccccc1)NC(=O)[C@H](CC(C)C)NC(=O)CN)[C@@H](C)CC)[C@@H](C)CC)C(=O)N[C@@H](C)C(=O)N[C@@H](CCC(=O)O)C(=O)N[C@@H](CO)C(=O)N[C@@H](Cc1ccccc1)C(N)=O [EH [Orn]^7, Gly-Leu-Phe-Asp-Ile-Ile-Orn^7-Lys-Ile-Ala-Glu-Ser-Phe-NH2] (H-GLFDII[Orn]KIAESF-NH2) | – | – | – | – | – | – | – | 102 ± 7.4 µM | 134 ± 7.4 µM | –
9 | CC[C@H](C)[C@H](NC(=O)[C@H](CCCN)NC(=O)[C@H](CCCCN)NC(=O)[C@@H](NC(=O)[C@@H](NC(=O)[C@H](CC(=O)O)NC(=O)[C@H](Cc1ccccc1)NC(=O)[C@H](CC(C)C)NC(=O)CN)[C@@H](C)CC)[C@@H](C)CC)C(=O)N[C@@H](C)C(=O)N[C@@H](CCC(=O)O)C(=O)N[C@@H](CO)C(=O)N[C@@H](Cc1ccccc1)C(N)=O [EH [Orn]^8, Gly-Leu-Phe-Asp-Ile-Ile-Lys-Orn^8-Ile-Ala-Glu-Ser-Phe-NH2] (H-GLFDIIK[Orn]IAESF-NH2) | – | – | – | – | – | – | – | 59.5 ± 5.21 µM | 75.6 ± 3.33 µM | –
